Experimental data from the OligoGym collection.
These antisense oligonucleotides have a phosphorothioate backbone; sugars and methylation of C are not fully specified.

Experiments:
Details in all cases: ASO
SMAD4 = target: SMAD4
RIPK1 = target: RIPK1
FADD = target: FADD
MAP2K4 = target: MAP2K4
Also: test concentration or dose not given here.

Row | Sequence | remaining target (mRNA or protein) (fraction of control) (RIPK1) | remaining target (mRNA or protein) (fraction of control) (FADD) | also measured
1 | TAAAATCAGCAATACTGG |  |  | remaining target (mRNA or protein) (fraction of control) (SMAD4): 0.79
2 | CAGTGCTTTCCCAGATTT | 0.94 |  | 
3 | CAGGTGGTAGTGCTGTTA |  |  | remaining target (mRNA or protein) (fraction of control) (SMAD4): ≥ 1
4 | CACCACAGCACCCCGCCT |  | 0.95 | 
5 | TGGAGTAACAGTGTGACT |  | 0.64 | 
6 | CATGGAGAAGAGGTCTAG |  | 0.71 | 
7 | CATACATAACAGGTGAAG |  |  | remaining target (mRNA or protein) (fraction of control) (SMAD4): 0.91
8 | GTCTGAGACTTTGAGCTG |  | ≥ 1 | 
9 | AGTTGTAAAGCTGTGTTT |  | 0.57 | 
10 | CCATCAGGACGCTTCGGA |  | 0.93 | 
11 | CTGTGTTCTTCCAGATTC |  | ≥ 1 | 
12 | TGAGGTTGGCTGGTGAGC | 0.83 |  | 
13 | GTGGACAACGATGGCTGT |  |  | remaining target (mRNA or protein) (fraction of control) (SMAD4): ≥ 1
14 | GTTGCGTTCTCCTTCTCT |  | 0.76 | 
15 | TGCTCCACATCTTAAAGG | 0.75 |  | 
16 | ACCAGGAACGGGTCCATG |  | 0.92 | 
17 | GGCCCCACTCCTGTTCTG |  | 0.52 | 
18 | ACTGGGATATTATGCAGA | 0.98 |  | 
19 | CAATGATTTCCCAAATTA | ≥ 1 |  | 
20 | TCATCAGCACCTCACAGA |  | 0.74 | 
21 | CTCCGGTGCCTGATTCAC |  | 0.94 | 
22 | ACACCGAGTGCAGCAGCA |  | 0.82 | 
23 | ATCTGGTAAACCTTTTCT | 0.99 |  | 

Row | Sequence | remaining target (mRNA or protein) (fraction of control) (RIPK1) | remaining target (mRNA or protein) (fraction of control) (FADD) | also measured
24 | TACCAGGTCAGCCACCAG |  | 0.91 | 
25 | CCCCACATTATCACATAT |  | 0.9 | 
26 | CTGTGGCTGAATTTGACC | ≥ 1 |  | 
27 | AGACACTATCACATTTTA |  |  | remaining target (mRNA or protein) (fraction of control) (SMAD4): ≥ 1
28 | AATCCTTTCCGACCAGCC |  |  | remaining target (mRNA or protein) (fraction of control) (SMAD4): 0.26
29 | AAAGCAGAAGAAAAGTGA |  |  | remaining target (mRNA or protein) (fraction of control) (SMAD4): ≥ 1
30 | GACAGGCATCATTACTTG |  |  | remaining target (mRNA or protein) (fraction of control) (SMAD4): ≥ 1
31 | AACACCAATACTCAGGAG |  |  | remaining target (mRNA or protein) (fraction of control) (SMAD4): ≥ 1
32 | CCAGCGGCCCAAGGATTC |  | ≥ 1 | 
33 | CCGGTGGCCTCCAAGGAA |  | ≥ 1 | 
34 | GTGCCTTTTCCCTCTGTA | 0.84 |  | 
35 | GGACCACGGCCAACCAGG |  | 0.58 | 
36 | CCTGCTGGGTCTTCACAG |  | ≥ 1 | 
37 | GAACCAAAGTCCAGGCTG |  | ≥ 1 | 
38 | TCATAGTGAGGAAGAAAT |  | ≥ 1 | 
39 | ACGATTACTTGGTGGATG |  |  | remaining target (mRNA or protein) (fraction of control) (SMAD4): 0.88
40 | CCATATAATTGTAGGCTC | ≥ 1 |  | 
41 | ACCACTCACAGTGCTGCTTC |  |  | remaining target (mRNA or protein) (fraction of control) (MAP2K4): 0.68
42 | CTCCCGCACACGCTCTGT |  | ≥ 1 | 
43 | CTCTATGATGACGCCCAG | 0.69 |  | 
44 | TTTAAGGGATTCTCAATA |  |  | remaining target (mRNA or protein) (fraction of control) (SMAD4): ≥ 1
45 | GATGACACTGACGCAAAT |  |  | remaining target (mRNA or protein) (fraction of control) (SMAD4): ≥ 1
46 | ATGGGCTCTGGTGAAGGA |  | ≥ 1 | 

Row | Sequence | remaining target (mRNA or protein) (fraction of control) (RIPK1) | remaining target (mRNA or protein) (fraction of control) (FADD) | also measured
47 | TTAAACTCTTCACGTCCT | 0.85 |  | 
48 | GGAGCCGCCATTGTTGGGAG |  |  | remaining target (mRNA or protein) (fraction of control) (MAP2K4): 0.91
49 | GTTTCTCCTAATCTTCAA |  |  | remaining target (mRNA or protein) (fraction of control) (SMAD4): ≥ 1
50 | ATTTTATAGATTCATCTG | ≥ 1 |  | 
51 | TGGAAGTCATTATCAACA | ≥ 1 |  | 
52 | CCCTGGGTTCTGTGGAAA | 0.7 |  | 
53 | GGCATGGTGGGTGTATTT | ≥ 1 |  | 
54 | GCTCGGGCTCGGAGCCGCCA |  |  | remaining target (mRNA or protein) (fraction of control) (MAP2K4): 0.47
55 | AATCGACATACATGGGAGAG |  |  | remaining target (mRNA or protein) (fraction of control) (MAP2K4): 0.55
56 | GTCTGATGTAGCAGCGATAT |  |  | remaining target (mRNA or protein) (fraction of control) (MAP2K4): 0.53
57 | ATAAAGATGGTAGTTGGC | ≥ 1 |  | 
58 | GAAATATATAGCTGCTACAA |  |  | remaining target (mRNA or protein) (fraction of control) (MAP2K4): ≥ 1
59 | TCCCAGCACTTTGGAAGG | ≥ 1 |  | 
60 | AAGGAAGATTTAGAGAGT |  | 0.72 | 
61 | TATGGCTCCTTATTTGCA | 0.78 |  | 
62 | CATACTTGATGGAGCATT |  |  | remaining target (mRNA or protein) (fraction of control) (SMAD4): ≥ 1
63 | AAAAGGGTCATGGGAGAC | ≥ 1 |  | 
64 | TTGTGCTGTCTAGTAGTG | ≥ 1 |  | 
65 | CTCCAGGTCGTTCTGCTC |  | 0.65 | 
66 | CATGGTCAATTTCATCAA | ≥ 1 |  | 
67 | CCTTCACTATGGCTGCCC |  |  | remaining target (mRNA or protein) (fraction of control) (SMAD4): 0.3
68 | TAGAGTCTGATGTAGCAGCG |  |  | remaining target (mRNA or protein) (fraction of control) (MAP2K4): 0.79
69 | CGCGCCCGAGGCATAGGA |  | 0.75 | 
